{
  "source": "patent US20170304411A1",
  "about": "“TOPICAL FORMULATION FOR TREATING SKIN OR MUCOSAL INFECTIONS, PREPARATION METHOD AND USES THEREOF” (HPRD - HEALTH PRODUCTS RESEARCH AND DEVELOPMENT LDA, priority 2014, published 2017)",
  "key": {"[1]": {"system": "planktonic cells of different Candida species, including C. albicans", "assay": "Direct fungistatic or fungicidal activity against planktonic cells", "type": "cell-based", "details": "previous studies by the applicant's team", "method": "When bromelain is added, an increase of activity reduction is observed, dependent on the enzyme concentration (the addition of a 250 μg/mL bromelain solution leads to metabolic activity reductions near 80% for both strains). […] Thus, the increase in metabolic activity reduction shown for the combination of bromelain and clotrimazole is not due to a direct fungistatic activity of the enzyme, but to a degradation of the biofilm matrix. The degradation of this matrix allows for the penetration of clotrimazole in the biofilm favouring its antimicrobial action."}, "[2]": {"system": "biofilms from C. albicans strains", "assay": "Checkerboard bromelain/clotrimazole, metabolic activity of biofilms (XTT reduction assay)", "type": "cell-based", "details": "increasing concentrations of clotrimazole alone; tested C. albicans strains", "from_the_text": "Following the washing step of microplates, the number of metabolically active cells available to metabolize XTT is reduced, leading to the overall reduction on metabolic activity."}, "[3]": {"system": "biofilms from C. albicans strains", "details": "clotrimazole alone, without bromelain"}, "[4]": {"details": "applied with no dilution on skin and mucosa as occlusive patch; cited from earlier work"}, "[5]": {"details": "after application in the eye; cited from earlier work"}},
  "data": [
    {"compound": "bromelain", "values": [
      {"measurement": "direct fungistatic or fungicidal activity", "setting": "[1]", "result": "does not exhibit direct fungistatic or fungicidal activity"}
    ]},
    {"compound": "Clc1ccccc1C(c1ccccc1)(c1ccccc1)n1ccnc1", "note": "[clotrimazole]", "values": [
      {"measurement": "reduction of metabolic activity", "setting": "[2]", "result": "≤ 60", "unit": "%"},
      {"measurement": "reduction of biofilm biomass", "setting": "[3]", "result": "limited"}
    ]},
    {"compound": "CC(=O)OCC(COC(C)=O)OC(C)=O", "note": "[triacetin]", "values": [
      {"measurement": "irritation potential", "setting": "[4]", "result": "low irritation potential"},
      {"measurement": "ocular irritation", "setting": "[5]", "result": "induces an ocular irritation it does not cause harm"}
    ]}
  ]
}
